Measurements published in ChEMBL document CHEMBL1139847, “Carbonic anhydrase inhibitors. DNA cloning, characterization, and inhibition studies of the human secretory isoform VI, a new target for sulfonamide and sulfamate inhibitors” (J Med Chem, 2007).
pKi: −log10 of the molar value.

These molecules were tested against Carbonic anhydrase 6 (Homo sapiens, UniProt P23280).
Carbonic anhydrase 6, sequence (P23280 whole entry): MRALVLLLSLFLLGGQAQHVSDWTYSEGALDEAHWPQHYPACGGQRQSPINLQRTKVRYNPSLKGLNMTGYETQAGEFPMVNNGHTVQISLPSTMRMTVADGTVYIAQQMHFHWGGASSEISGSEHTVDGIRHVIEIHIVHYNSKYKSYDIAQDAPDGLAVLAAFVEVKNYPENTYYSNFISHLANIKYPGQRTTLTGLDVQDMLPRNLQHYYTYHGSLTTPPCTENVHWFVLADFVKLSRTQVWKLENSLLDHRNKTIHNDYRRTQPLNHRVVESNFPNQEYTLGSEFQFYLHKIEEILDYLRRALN

| SMILES | pKi |
| --- | --- |
| NNc1ccccc1S(N)(=O)=O | 5.96 |
| Nc1ccc(S(=O)(=O)NCc2ccc(S(N)(=O)=O)cc2)cc1 | 7.26 |
| Nc1ccc(S(N)(=O)=O)cc1I | 5.99 |
| Nc1ccc(S(=O)(=O)Nc2nnc(S(N)(=O)=O)s2)cc1 | 7.14 |
| Nc1nccc(Nc2ccc(S(N)(=O)=O)cc2)n1 | 7.07 |
| Nc1ccccc1S(N)(=O)=O | 6.11 |
| Nc1ccc(S(N)(=O)=O)cc1Br | 5.33 |
| Cn1nc(S(N)(=O)=O)sc1=N | 6.13 |
| NS(=O)(=O)c1ccc(CCO)cc1 | 5.38 |
| Nc1ccc(S(N)(=O)=O)cc1F | 7.02 |
| NS(=O)(=O)c1ccc(CO)cc1 | 5.18 |
| Nc1ccc(S(N)(=O)=O)cc1Cl | 5.96 |
| Nc1ccc(S(=O)(=O)NCCc2ccc(S(N)(=O)=O)cc2)cc1 | 7.62 |
| NNc1ccc(S(N)(=O)=O)cc1 | 5.89 |
| NS(=O)(=O)c1ccc(S(=O)(=O)Nc2cccc3c(Cl)c[nH]c23)cc1 | 7.33 |
| CCN[C@H]1CN(CCCOC)S(=O)(=O)c2sc(S(N)(=O)=O)cc21 [BRINZOLAMIDE] | 9.05 |
| NS(=O)(=O)c1ccc(C(=O)O)cc1 [CARZENIDE] | 6.05 |
| NCc1ccc(S(N)(=O)=O)cc1 [MAFENIDE] | 5.32 |
| Cc1ccc(S(N)(=O)=O)cc1 [P-TOLUENESULFONAMIDE] | 5.80 |
| Nc1ccc(S(N)(=O)=O)cc1 [SULFANILAMIDE] | 6.03 |

These molecules were tested against Carbonic anhydrase 9 (Homo sapiens, UniProt Q16790).

| SMILES | pKi |
| --- | --- |
| Cc1ccc(S(N)(=O)=O)cc1 [P-TOLUENESULFONAMIDE] | 6.34 |
